Tests used:
[1] = molecular target: T1, human vascular endothelial growth factor receptor 2 (VEGF-R2) (Homo sapiens, UniProt P35968, DEL940-989/E990V); experiment: VEGF-R2 coupled spectrophotometric assay (FLVK, unphosphorylated VEGF-R2D50); type: biochemical; conditions: for Ki: unphosphorylated VEGF-R2D50 (FLVK)
T1 construct: VEGF-R2D50 contains residues 806-939 and 990-1171; made in house; host or cells: baculovirus/insect cell system
Text: This construct determines the ability of a test compound to inhibit tyrosine kinase activity. A construct (VEGF-R2D50) of the cytosolic domain of human vascular endothelial growth factor receptor 2 (VEGF-R2) lacking the 50 central residues of the 68 residues of the kinase insert domain was expressed in a baculovirus/insect cell system. Of the 1356 residues of full-length VEGF-R2, VEGF-R2D50 contains residues 806-939 and 990-1171, and also one point mutation (E990V) within the kinase insert domain relative to wild-type VEGF-R2. Autophosphorylation of the purified construct was performed by incubation of the enzyme at a concentration of […] in the presence of 3 mM ATP and 40 mM MgCl2 in 100 mM HEPES, pH 7.5, containing 5% glycerol and 5 mM DTT, at 4° C. for 2 h. […] See Parast et al., Biochemistry, 37, 16788-16801 (1998).
VEGF-R2 Assay: Coupled Spectrophotometric (FLVK-P) Assay
The production of ADP from ATP that accompanies phosphoryl transfer was coupled to oxidation of NADH using phosphoenolpyruvate (PEP) and a system having pyruvate kinase (PK) and lactic dehydrogenase (LDH). The oxidation of NADH was monitored by following the decrease of absorbance at 340 nm (e340=6.22 cm^−1 mM^−1) using a Beckman DU 650 spectrophotometer. Assay conditions for phosphorylated VEGF-R2D50 (indicated as FLVK-P in the tables below) were the following: 1 mM PEP; […] NADH; 50 units of LDH/mL; 20 units of PK/mL; 5 mM DTT; 5.1 mM poly(E4Y1); 1 mM ATP; and 25 mM MgCl2 in 200 mM HEPES, pH 7.5. Assay conditions for unphosphorylated VEGF-R2D50 (indicated as FLVK in the tables) were the following: 1 mM PEP; […] NADH; 50 units of LDH/mL; 20 units of PK/mL; 5 mM DTT; 20 mM poly(E4Y1); 3 mM ATP; and 60 mM MgCl2 and 2 mM MnCl2 in 200 mM HEPES, pH 7.5. Assays were initiated with 5 to 40 nM of enzyme. K1 values were determined by measuring enzyme activity in the presence of varying concentrations of test compounds. The percent inhibition at 50 nM (% inhibition @ 50 nM) was determined by linear least-squares regression analysis of absorbance as a function of time. The binding inhibitions were fitted to equation as described by Morrison. The data were analyzed using Enzyme Kinetic and Kaleidagraph software.

[2] = tested on: human umbilical vein endothelial cells (HUVEC); experiment: HUVEC+VEGF proliferation assay; type: cell-based; conditions: Homo sapiens; VEGF-stimulated HUVEC proliferation, MTT, 72 hours
Protocol: HUVEC+VEGF Proliferation Assay
This assay determines the ability of a test compound to inhibit the growth factor-stimulated proliferation of human umbilical vein endothelial cells (“HUVEC”). HUVEC cells (passage 3-4, Clonetics, Corp.) were thawed into EGM2 culture medium (Clonetics Corp) in T75 flasks. Fresh EGM2 medium was added to the flasks 24 hours later. Four or five days later, cells were exposed to another culture medium (F12K medium supplemented with 10% fetal bovine serum (FBS), […] endothelial cell growth supplement (ECGS), and 0.1 mg/mL heparin). Exponentially-growing HUVEC cells were used in experiments thereafter. Ten to twelve thousand HUVEC cells were plated in 96-well dishes in […] of rich, culture medium (described above). The cells were allowed to attach for 24 hours in this medium. The medium was then removed by aspiration and […] of starvation media (F12K+1% FBS) was added to each well. After 24 hours, […] of test agent dissolved in 1% DMSO in starvation medium or this vehicle alone was added into each treatment well; the final DMSO concentration was 0.1%. One hour later, […] of VEGF (30 ng/mL) in starvation media was added to all wells except those containing untreated controls; the final VEGF concentration was 6 ng/mL. Cellular proliferation was quantified 72 hours later by MTT dye reduction, at which time cells were exposed for 4 hours MTT (Promega Corp.). Dye reduction was stopped by addition of a stop solution (Promega Corp.) and absorbance at 595 nm was determined on a 96-well spectrophotometer plate reader.

human FGF-R1 = molecular target: T2, human FGF-R1 (Homo sapiens, UniProt P11362, C488A/C584S/L457V); experiment: FGF-R spectrophotometric assay; type: biochemical
T2 construct: starting from the endogenous methionine residue 456 to glutamate 766; made in house; host or cells: baculovirus vector expression system
T2 sequence (P11362 456-766 L457V/C488A/C584S): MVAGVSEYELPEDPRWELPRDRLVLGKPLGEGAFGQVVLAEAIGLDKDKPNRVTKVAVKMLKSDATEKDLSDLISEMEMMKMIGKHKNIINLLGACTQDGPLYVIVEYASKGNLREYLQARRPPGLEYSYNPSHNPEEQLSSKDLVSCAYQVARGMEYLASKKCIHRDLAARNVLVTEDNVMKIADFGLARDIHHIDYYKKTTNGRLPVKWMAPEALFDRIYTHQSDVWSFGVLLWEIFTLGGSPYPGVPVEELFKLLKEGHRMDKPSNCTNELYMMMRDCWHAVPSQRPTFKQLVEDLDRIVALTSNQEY
Protocol: The intracellular kinase domain of human FGF-R1 was expressed using the baculovirus vector expression system starting from the endogenous methionine residue 456 to glutamate 766, according to the residue numbering system of Mohammadi et al., Mol. Cell. Biol., 16, 977-989 (1996). In addition, the construct also has the following 3 amino acid substitutions: L457V, C488A, and C584S.
The spectrophotometric assay was carried out as described above for VEGF-R2, except for the following changes in concentration: FGF-R=50 nM, ATP=2 mM, and poly(E4Y1)=15 mM.

T1 sequence (P35968 with tags, fused parts or gaps DEL940-989/E990V limits assumed): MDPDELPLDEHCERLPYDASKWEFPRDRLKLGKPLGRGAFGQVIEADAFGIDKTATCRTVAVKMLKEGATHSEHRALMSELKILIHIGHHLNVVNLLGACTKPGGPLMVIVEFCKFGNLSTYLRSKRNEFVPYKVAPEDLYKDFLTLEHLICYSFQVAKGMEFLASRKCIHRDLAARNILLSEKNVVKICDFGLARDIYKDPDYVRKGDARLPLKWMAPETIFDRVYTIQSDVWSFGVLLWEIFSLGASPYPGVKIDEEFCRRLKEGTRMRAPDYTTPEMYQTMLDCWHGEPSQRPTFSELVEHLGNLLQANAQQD

Ki [1]	inhibition at 1 µM [1]	inhibition at 1 µM (human FGF-R1)	SMILES	IC50 [2]
1 to 10 nM	–	–	COc1ccc2c(Oc3ccc4c(C(=O)NC5CCCCC5)c(C)sc4c3)ccnc2c1 [Example 52, N-cyclohexyl-6-[(7-methoxyquinolin-4-yl)oxy]-2-methyl-1-benzothiophene-3-carboxamide]	1 to 10 nM
1 to 10 nM	–	–	CNC(=O)c1c(C)oc2cc(Oc3ccnc4cc(Br)ccc34)ccc12 [Example 19, 6-[(7-bromoquinolin-4-yl)oxy]-N,2-dimethy-1-benzofuran-3-carboxamide]	1 to 10 nM
1 to 10 nM	–	–	CNC(=O)c1c(C)oc2cc(Oc3ccnc4cc(OCCN5CCOCC5)ccc34)ccc12 [Example 36, N,2-dimethyl-6-{[7-(2-morpholin-4-ylethoxy)quinolin-4-yl]oxy)-1-benzofuran-3-carboxamide]	< 1 nM
–	68%	32%	COc1ccc2c(Oc3ccc4cc(C)oc4c3)ccnc2c1 [Example 125, 7-Methoxy-4-(2-methyl-benzofuran-6-yloxy)-quinoline]	–
< 1 nM	–	–	CNC(=O)c1c(C)oc2cc(Oc3ccnc4cc(-c5ccco5)ccc34)ccc12 [Example 13, 6-{[7-(2-furyl)quinolin-4-yl]oxy}-N,2-dimethyl-1-benzofuran-3-carboxamide]	1 to 10 nM
< 1 nM	–	–	CNC(=O)c1c(C)oc2cc(Oc3ccnc4cc(-c5cccnc5)ccc34)ccc12 [Example 8, N-2-dimethyl-6-[(7-pyridin-3-ylquinolin-4-yl)oxy]-1-benzofuran-3-carboxamide]	< 1 nM
1 to 10 nM	–	–	COc1ccc2c(Oc3ccc4c(C(=O)NCCCO)c(C)oc4c3)ccnc2c1 [Example 67, N-(3-hydroxypropyl)-6-[(7-methoxyquinolin-4-yl)oxy]-2-methyl-1-benzofuran-3-carboxamide]	1 to 10 nM
< 1 nM	–	–	CNC(=O)c1c(C)oc2cc(Oc3ccnc4cc(-c5ccccn5)ccc34)ccc12 [Example 9, N-2-dimethyl-6-[(7-pyridin-2-ylquinolin-4-yl)oxy]-1-benzofuran-3-carboxamide]	1 to 10 nM
1 to 10 nM	–	–	CNC(=O)c1c(C)sc2cc(Oc3ccnc4cc(-c5cccnc5)ccc34)ccc12 [Example 14, N2dimethyl-6-[(7-pyridin-3-ylquinolin-4-yl)oxy]-1-benzothiophene-3-carboxamide]	1 to 10 nM
1 to 10 nM	–	–	CNC(=O)c1c(C)sc2cc(Oc3ccnc4cc(-c5ccncc5)ccc34)ccc12 [Example 10, N-2-dimethyl-6-[(7-pyridin-4-ylquinolin-4-yl]oxy]-1-benzothiophene-3-carboxamide]	1 to 10 nM
1 to 10 nM	–	–	CNC(=O)n1c(C)cc2cc(Nc3ccnc4cc(-c5ccncc5)ccc34)ccc21 [Example 11, N-2-dimethyl-5-[(7-pyridin-4-ylquinolin-4-yl]amino]-1H-indole-1-carboxamide]	< 1 nM

The remaining lines, values behind:

SMILES	Ki [1]	inhibition at 1 µM [1]	inhibition at 1 µM (human FGF-R1)	IC50 [2]
CNC(=O)c1c(C)oc2cc(Oc3ccnc4cc(I)ccc34)ccc12 [Example 6, 6-[(7-iodoquinolin-4-yl)oxy]-N,2-dimethyl-1-benzofuran-3-carboxamide]	1 to 10 nM	–	–	1 to 10 nM
CCOCCNC(=O)c1c(C)oc2cc(Oc3ccnc4cc(OC)ccc34)ccc12 [Example 86, 6-[(7-methoxyquinolin-4-yl)oxy]-2-methyl-N-[ethoxy-ethyl]-1-benzofuran-3-carboxamide]	1 to 10 nM	–	–	1 to 10 nM
CNC(=O)c1c(C)oc2cc(Oc3ccnc4cc(OCCN5CCCCC5)ccc34)ccc12 [Example 38, N,2-dimethyl-6-{[7-(2-piperidin-1-ylethoxy)quinolin-4-yl]oxy}-1-benzofuran-3-carboxamide]	1 to 10 nM	–	–	< 1 nM
COc1ccc2c(Oc3ccc4c(C(=O)NC5CC5)c(C)sc4c3)ccnc2c1 [Example 48, N-cyclopropyl-6-[(7-methoxyquinolin-4-yl)oxy]-2-methyl-1-benzothiophene-3-carboxamide]	1 to 10 nM	–	–	1 to 10 nM
COc1ccc2c(Oc3ccc4c(C(=O)NCCCN(C)C)c(C)sc4c3)ccnc2c1 [Example 51, N-[3-(dimethylamino)propyl]-6-[(7-methoxyquinolin-4-yl)oxy]-2-methyl-1-benzothiophene-3-carboxamide]	> 10 nM	–	–	1 to 10 nM
COc1ccc2c(Oc3ccc4c(C(=O)NCc5ccccn5)c(C)oc4c3)ccnc2c1 [Example 66, 6-[(7-methoxyquinolin-4-yl)oxy]-2-methyl-N-(pyridin-2-ylmethyl)-1-benzofuran-3-carboxamide]	> 10 nM	–	–	1 to 10 nM
CCCCNC(=O)c1c(C)oc2cc(Oc3ccnc4cc(OCCN5CCCCC5)ccc34)ccc12 [Example 47, N-butyl-2-methyl-6-{[7-(2-piperidin-1-ylethoxy)quinolin-4-yl]oxy}-1-benzofuran-3-carboxamide]	1 to 10 nM	–	–	< 1 nM
CCCCNC(=O)c1c(C)oc2cc(Oc3ccnc4cc(OCCN5CCOCC5)ccc34)ccc12 [Example 45, N-butyl-2-methyl-6-{[7-(2-morpholin-4-ylethoxy)quinolin-4-yl]oxy}-1-benzofuran-3-carboxamide]	1 to 10 nM	–	–	1 to 10 nM
CCCCNC(=O)c1c(C)oc2cc(Oc3ccnc4cc(OCCN(C)C)ccc34)ccc12 [Example 46, N-butyl-6-({7-[2-(dimethylamino)ethoxy]quinolin-4-yl}oxy)-2-methyl-1-benzofuran-3-carboxamide]	1 to 10 nM	–	–	< 1 nM
CNC(=O)c1c(C)oc2cc(Oc3ccnc4cc(OC)ccc34)ccc12 [Example 29, 6-[(7-methoxyquinoline-4-yl)oxy]-N,2-dimethyl-1-benzofuran-3-carboxamide]	< 1 nM	–	–	1 to 10 nM
CCCCNC(=O)c1c(C)oc2cc(Oc3ccnc4cc(OCCN5CCCC5)ccc34)ccc12 [Example 44, N-butyl-2-methyl-6-{[7-(2-pyrrolidin-1-ylethoxy)quinolin-4-yl]oxy}-1-benzofuran-3-carboxamide]	1 to 10 nM	–	–	< 1 nM
CCCNC(=O)c1c(C)sc2cc(Oc3ccnc4cc(OC)ccc34)ccc12 [Example 50, [(7-methoxyquinolin-4-yl)oxy]-2-methyl-N-propyl-1-benzothiophene-3-carboxamide]	1 to 10 nM	–	–	1 to 10 nM
CNC(=O)c1c(C)oc2cc(Oc3ccnc4cc(OCCN(C)C)ccc34)ccc12 [Example 37, 6-({7-[2-(dimethylamino)ethoxy]quinolin-4-yl}oxy)-N,2-dimethyl-1-benzofuran-3-carboxamide]	1 to 10 nM	–	–	< 1 nM
